Drawing on patent publication US10912763B2 (priority 2010, dated 2021), this text covers Pharmacological activity for 1 molecule.

This assay can be described thus: Pharmacological activity of the decomposition product.

For `Fc1ccc2[nH]c3c(c2c1)CCOC31CC=C(c2ccccc2)CC1` (stereo not shown) [6′-fluoro-4-phenyl-4′,9′-dihydro-3′H-spiro[cyclohex-3-ene-1,1′-pyrano[3,4-b]indole]], the Pharmacological activity entry is “pharmacologically inactive”.
